Results reported in patent US8227210B2, “Positive control proteins for glucose transporter proteins and processes for the generation of such positive control proteins” (East Tennessee State University Research Foundation, priority 2008, dated 2012).
Several values for one entry are separate records, joined by “and”; a condition that tells them apart may be missing. Equal values may be shown once. Entries after “also recorded” stand apart in the source; their conditions may differ.

How the values were obtained:
SEQ ID NO. 12 (GLUT4) [1] = conditions: cited from earlier work
SEQ ID NO. 16 (GLUT12) = assay: Euglycemic insulin clamp: GLUT12 in plasma membrane-enriched (PM) fraction of vastus lateralis biopsies, quantitative immunoblot; format: in vivo, human
Protocol: (§1) Muscle biopsies: Percutaneous needle biopsies of vastus lateralis were performed using a 5 mm Bergstrom-Stille needle under suction after an overnight fast and two hours of quiet recumbency as previously described (6). A 50-100 mg specimen was quickly blotted and the entire sample was frozen in liquid nitrogen for later analysis.
Fractionation of muscle microsamples: We have made minor modifications of our previously described techniques (10). Briefly, 50 mg muscle is removed from the −80° C. freezer and slowly thawed on ice. The muscle is homogenized in 1.0 ml Buffer A (250 mM sucrose, 20 mM HEPES, pH 7.4) with 5 μL protease cocktail (Cocktail Kit Pierce #78410) added. Initial homogenization is 30 seconds with a Pellet Pestle Motor (Kontes). The homogenate is passed through a BD Falcon 100 μm Cell Strainer and after adding 100 μL Buffer B (3M KCl, 250 roM sodium pyrophosphate), is spun at 227,000×g for 30 minutes. The pellet is resuspended in 1.0 mL of Buffer A with protease cocktail using the Pellet Pestle Motor again for 30 seconds. This sample is then spun at 12,000×g for 20 minutes. The pellet is resuspended in 200 μl, Boston Bioproducts Triton Lysis Buffer with Protease Inhibitor (BP-117) using the Pellet Pestle Motor. This sample is designated PM, the plasma membrane-enriched fraction. The supernate is removed and spun at 227,000×g for 30 minutes. The resulting pellet is also resuspended in 200 μL Boston. Bioproducts Triton Lysis Buffer, and is designated LDM, the low density microsomes fraction. PM protein content averaged 139±7 μg and LDM contained 265±8 μg protein. In studies performed on human control muscle sample fractions, the PM fraction contained 80% of the immunological signal for the plasma membrane marker Na/K+ ATPase α-I (05-369 from Millipore). LDM contained 67% of the golgi marker mannosidase II (AB3712 from Chemicon).
(§2) Immunoblot technique: Immunoblotting was performed essentially as previously described (11). […] Image analysis was performed on scanned film digital files using Quantity One version 4.5.2 software from Bio-Rad (Hercules, Calif.). […]

[2] = system: SEQ ID NO. 16 (GLUT12) translocation in L6 myoblasts; assay: Insulin-stimulated translocation of GLUT12 to PM fraction in L6 myoblasts and its inhibition by PI3-K inhibitor; format: cell-based, rat; conditions: L6 cells, 10 ng/mL insulin
Protocol: (§3) Fractionation of L6 muscle cells: L6 cells were obtained from ATCC and cultured in D.MEM medium with 10% fetal bovine serum with subculturing every three to five days. For the studies described below, cells were grown to near confluence in 100 mm dishes. Cells were harvested in 1 mL homogenization Buffer A containing 5 μL protease inhibitors using a rubber policeman. The remainder of the technique is the same as muscle microsamples. The yield of protein averaged 199±14 μg for PM and 419±22 μg for LDM. Immunoblot technique: Immunoblotting was performed essentially as previously described (11). In general, 10-20 μg protein from muscle homogenate or fractions was separated on a 10% polyacrylamide gel using the Laemmli system (12), transferred to a nitrocellulose membrane, subjected to blocking with 2.5% non-fat dry milk in phosphate-buffered saline, incubated with a validated dilution of one of the anti-GLUT antibodies above including 1.25% milk, and developed with the enhanced chemiluminescence reagent and X-ray film. Image analysis was performed on scanned film digital files using Quantity One version 4.5.2 software from Bio-Rad (Hercules, Calif.). The specificity of the antibodies employed for GLUT1 SEQ ID NO. […] After harvesting and fractionating the cells, samples from the fractions were subjected to immunoblotting and digital images were quantified by image analysis software. […]

SEQ ID NO. 10 (GLUT1) = assay: Euglycemic insulin clamp: GLUT1 in plasma membrane-enriched (PM) fraction of vastus lateralis biopsies, immunoblot; format: in vivo, human
Protocol: as §1
(§4) Fractionation of muscle microsamples: We have made minor modifications of our previously described techniques (10). Briefly, 50 mg muscle is removed from the −80° C. freezer and slowly thawed on ice. The muscle is homogenized in 1.0 ml Buffer A (250 mM sucrose, 20 mM HEPES, pH 7.4) with 5 μL protease cocktail (Cocktail Kit Pierce #78410) added. Initial homogenization is 30 seconds with a Pellet Pestle Motor (Kontes). The homogenate is passed through a BD Falcon 100 μm Cell Strainer and after adding 100 μL Buffer B (3M KCl, 250 roM sodium pyrophosphate), is spun at 227,000×g for 30 minutes. The pellet is resuspended in 1.0 mL of Buffer A with protease cocktail using the Pellet Pestle Motor again for 30 seconds. This sample is then spun at 12,000×g for 20 minutes. […]
as §2

[3] = system: SEQ ID NO. 12 (GLUT4) translocation in L6 myoblasts; assay: Insulin-stimulated translocation of GLUT4 to PM fraction in L6 myoblasts and its inhibition by PI3-K inhibitor; format: cell-based, rat; conditions: L6 cells, 10 ng/mL insulin
Protocol: as §3

[4] = Euglycemic insulin clamp: plasma insulin concentration and glucose infusion rate
Protocol: Euglycemic insulin clamp studies: Insulin infusion studies were performed essentially as previously described (8; 9) except no isotope or somatostatin were used in this study. Mter an overnight fast, subjects were maintained in quiet recumbency for two hours to minimize the effects of muscular activity on protein subcellular localization. After a baseline muscle biopsy, a constant insulin infusion was performed at 40 mU/m2/min for three hours. A second muscle biopsy was performed on the contralateral side in the last 10 minutes of the insulin infusion period.

SEQ ID NO. 12 (GLUT4) [5] = assay: Euglycemic insulin clamp: GLUT4 in plasma membrane-enriched (PM) fraction of vastus lateralis biopsies, quantitative immunoblot; format: in vivo, human
Protocol: as §1, §4, §2

Substance: insulin: insulin given as constant euglycemic infusion at 40 mU/m2/min, or 10 ng/mL on L6 cells
- Increase in GLUT4 in the muscle plasma membrane fractions (Zierath) (SEQ ID NO. 12 (GLUT4) [1]; after euglycemic insulin infusion, same infusion rate, literature ref 26): 60%
- Increase in sarcolemma-associated GLUT4 by confocal quantitative immunohistochemistry (Kelley) (SEQ ID NO. 12 (GLUT4) [1]; control subjects, literature ref 24): 85%
- Increase in GLUT4 in muscle plasma membrane-enriched fractions (Garvey) (SEQ ID NO. 12 (GLUT4) [1]; ten-fold higher insulin infusion, control subjects, literature ref 25): 2.8 fold
- GLUT12 distribution in the plasma membrane-enriched (PM) fractions (SEQ ID NO. 16 (GLUT12); end of 3 h insulin infusion at 40 mU/m2/min, six normal volunteers, baseline 17%): 38%
- Change of GLUT12 content of the PM fraction in response to insulin infusion (SEQ ID NO. 16 (GLUT12); insulin infusion vs baseline): more than doubled in four of the six subjects
- Minimum increase of GLUT12 content of the PM fraction (SEQ ID NO. 16 (GLUT12); insulin infusion vs baseline, minimum response among six subjects): ≥ 60%
- Translocation of GLUT12 to the PM fraction by insulin [2]: translocated; also recorded: caused translocation; also recorded: moved from the fraction to the PM fraction
- Change of GLUT1 distribution/signal in LDM and PM fractions after insulin (SEQ ID NO. 10 (GLUT1); insulin infusion vs baseline): did not change; also recorded: no change
- GLUT1 content in the PM fractions (SEQ ID NO. 10 (GLUT1); post-insulin infusion, subjects 1-5, baseline 78±7%): 79±9% and 79%
- Translocation of GLUT4 to the PM fraction by insulin [3]: caused translocation; also recorded: moved from the fraction to the PM fraction
- Plasma insulin concentration ([4]; infusion of insulin at 40 mU/m2/min, baseline 28±7 pmol/L): 343 ± 21 pmol/L
- Mean glucose infusion rate to maintain blood glucose of 85 mg/dL ([4]; steady state period of the insulin infusion): 8.87 mg/kg·min
- GLUT4 distribution in the plasma membrane-enriched (PM) fractions (SEQ ID NO. 12 (GLUT4) [5]; end of 3 h insulin infusion at 40 mU/m2/min, six normal volunteers, baseline 13%): 42%
- Change of GLUT4 content of the PM fraction in response to insulin infusion (SEQ ID NO. 12 (GLUT4) [5]; insulin infusion vs baseline, each subject): more than doubled; also recorded: at least doubled
